{"source": "patent US6923992B2", "about": "“Active compounds of Bao-Ji-Wan for anti-diarrhea and relieving gastrointestinal symptoms” (The Chinese University of Hong Kong, priority 2001, dated 2005)", "key": {"[1]": {"test_system": "Cl−-secreting human colonic cell line, T84", "assay": "Inhibition of cAMP-activated Cl− secretion across T84 cell monolayers", "format": "cell-based", "details": "forskolin (10 μM), read-out: IC50, inhibition of forskolin-induced Cl− secretion"}, "[2]": {"test_system": "PGE2-induced fluid accumulation", "assay": "PGE2-induced enteropooling assay (fluid accumulation) in rats", "format": "in vivo, Sprague-Dawley rats", "details": "for inhibition at 2 mg/kg: Rattus norvegicus, read-out: Inhibition of secretion", "description": "This example illustrates the ability of BJW and its active components, magnolol, honokiol and imperatorin, to inhibit PGE2-induced fluid accumulation in rats. Sprague-Dawley rats of either sex, in groups of 8 animals, weighing between 220 and 250 g were used. A modified PGE2-induced enteropooling assay (Robert et al., Prostaglandins 11(5):809-28 (1976)) was used. The test drugs or vehicle were administrated intergastrically to rats 60 min before the administration of PGE2 (100 μg/kg, i.g.). BJW was administered (i.g. 1.6 g/kg, 2× of recommended human dosage) once daily for two days before treatment with PGE2."}, "[3]": {"details": "rats, dose 2 mg/kg intergastrically 60 min before PGE2 (100 μg/kg, i.g.)"}}, "note": "Read-outs that look alike come from different tables or passages of the source.", "data": [{"compound": "C=CCc1ccc(O)c(-c2ccc(O)c(CC=C)c2)c1", "note": "[Honokiol, honokiol]", "values": [{"measurement": "IC50", "setting": "[1]", "value": "4 to 7", "unit": "µg/mL"}, {"measurement": "inhibition at 2 mg/kg", "setting": "[2]; [3]", "value": 56, "unit": "%"}, {"measurement": "Fluid accumulation ratio (FA)", "setting": "[2]; [3]", "value": "7.06 ± 1.18", "unit": "fluid g/g intestine"}]}, {"compound": "CC(C)=CCOc1c2occc2cc2ccc(=O)oc12", "note": "[Imperatorin, imperatorin]", "values": [{"measurement": "IC50", "setting": "[1]", "value": "4 to 7", "unit": "µg/mL"}, {"measurement": "inhibition at 2 mg/kg", "setting": "[2]; [3]", "value": 39, "unit": "%"}, {"measurement": "Fluid accumulation ratio (FA)", "setting": "[2]; [3]", "value": "8.87 ± 1.93", "unit": "fluid g/g intestine"}]}, {"compound": "CN(C)C(=O)C(CCN1CCC(O)(c2ccc(Cl)cc2)CC1)(c1ccccc1)c1ccccc1", "note": "[Loperamide, loperamide, reference compound]", "values": [{"measurement": "inhibition at 2 mg/kg", "setting": "[2]", "value": 75, "unit": "%"}, {"measurement": "Fluid accumulation ratio (FA)", "setting": "[2]; [3]", "value": "5.09 ± 1.40", "unit": "fluid g/g intestine"}]}, {"compound": "C=CCc1ccc(O)c(-c2cc(CC=C)ccc2O)c1", "note": "[Magnolol, magnolol]", "values": [{"measurement": "inhibition at 2 mg/kg", "setting": "[2]", "value": 92, "unit": "%"}, {"measurement": "Fluid accumulation ratio (FA)", "setting": "[2]; [3]", "value": "3.28 ± 0.32", "unit": "fluid g/g intestine"}]}, {"compound": "CC(C)=CCOc1c2ccoc2cc2oc(=O)ccc12", "note": "[isoimperatorin]", "values": [{"measurement": "IC50", "setting": "[1]", "value": "4 to 7", "unit": "µg/mL"}]}]}
